Data on six compounds can be found in ChEMBL document CHEMBL4665910, “Novel Thienopyridines as RIPK2 Inhibitors for Treating Inflammatory Bowel Disease” (ACS Med Chem Lett, 2020).

Chain of Receptor-interacting serine/threonine-protein kinase 2 (O43353 whole entry): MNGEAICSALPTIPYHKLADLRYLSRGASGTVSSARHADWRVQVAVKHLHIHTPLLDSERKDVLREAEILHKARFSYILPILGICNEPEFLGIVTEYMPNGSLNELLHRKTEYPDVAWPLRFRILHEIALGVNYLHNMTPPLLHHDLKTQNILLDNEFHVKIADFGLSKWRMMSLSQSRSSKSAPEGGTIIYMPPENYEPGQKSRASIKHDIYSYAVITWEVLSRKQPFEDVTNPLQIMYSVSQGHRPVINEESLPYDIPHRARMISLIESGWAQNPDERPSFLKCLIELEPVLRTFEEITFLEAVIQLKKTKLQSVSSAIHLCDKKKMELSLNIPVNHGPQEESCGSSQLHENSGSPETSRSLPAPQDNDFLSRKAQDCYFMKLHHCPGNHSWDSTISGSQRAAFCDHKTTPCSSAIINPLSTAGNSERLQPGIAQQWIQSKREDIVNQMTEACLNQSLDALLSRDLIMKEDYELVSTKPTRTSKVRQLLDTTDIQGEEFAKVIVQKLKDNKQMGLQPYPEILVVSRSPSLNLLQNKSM

This assay concerns the target Receptor-interacting serine/threonine-protein kinase 2 (Homo sapiens, UniProt O43353). Put plainly: Inhibition of RIPK2 (unknown origin) incubated for 1 hr by Lanthascreen TR-FRET assay. Background: In TR-FRET formats the signal depends on donor and acceptor labels being close together.
Usually IC50 stands for the concentration needed to halve the response being measured. A higher IC50 goes with weaker potency in that assay. As for `CC1NCCC=C1c1cc2c(Nc3ccc4scnc4c3)ccnc2s1` (stereo unspecified), the IC50 was not above 10 nM.
`C1=C(c2cc3c(Nc4ccc5scnc5c4)ccnc3s2)C2(CCOCC2)NC1` registered an IC50 not above 10 nM.
In turn, `C1=C(c2cc3c(Nc4ccc5scnc5c4)ccnc3s2)CCNCC1` registered an IC50 not above 10 nM.
`C1=C(c2cc3c(Nc4ccc5scnc5c4)ccnc3s2)C2(CCOC2)NC1` (stereo unspecified) registered a 50% inhibitory concentration (IC50) not above 10 nM.
As to `CC1NCCC1c1cc2c(Nc3cc4ncsc4cc3F)ccnc2s1` (stereo unspecified), the IC50 was not above 10 nM.
In the case of `CC1C(c2cc3c(Nc4ccc5scnc5c4)c(F)cnc3s2)CCCN1C` (stereo unspecified), the IC50 was not above 10 nM.
